In ChEMBL document CHEMBL2069184, “A Back-to-Front Fragment-Based Drug Design Search Strategy Targeting the DFG-Out Pocket of Protein Tyrosine Kinases” (ACS Med Chem Lett, 2012):

Legend:
[1] = target: T1, Vascular endothelial growth factor receptor 2 (Homo sapiens, UniProt P35968); test: Inhibition of human phosphorylated N-terminal-His6 tagged VEGFR2 catalytic domain using 5-FAM-EEPLYWSFPAKKK-CONH2 as substrate after 60 mins by mobility shift assay
[2] = target: T1, Vascular endothelial growth factor receptor 2; test: Inhibition of human unphosphorylated N-terminal-His6 tagged VEGFR2 catalytic domain using 5-FAM-EEPLYWSFPAKKK-CONH2 as substrate after 60 mins by mobility shift assay
[3] = target: T1, Vascular endothelial growth factor receptor 2; details: 100 uM

T1 sequence (P35968 whole entry, the tested form may be a part): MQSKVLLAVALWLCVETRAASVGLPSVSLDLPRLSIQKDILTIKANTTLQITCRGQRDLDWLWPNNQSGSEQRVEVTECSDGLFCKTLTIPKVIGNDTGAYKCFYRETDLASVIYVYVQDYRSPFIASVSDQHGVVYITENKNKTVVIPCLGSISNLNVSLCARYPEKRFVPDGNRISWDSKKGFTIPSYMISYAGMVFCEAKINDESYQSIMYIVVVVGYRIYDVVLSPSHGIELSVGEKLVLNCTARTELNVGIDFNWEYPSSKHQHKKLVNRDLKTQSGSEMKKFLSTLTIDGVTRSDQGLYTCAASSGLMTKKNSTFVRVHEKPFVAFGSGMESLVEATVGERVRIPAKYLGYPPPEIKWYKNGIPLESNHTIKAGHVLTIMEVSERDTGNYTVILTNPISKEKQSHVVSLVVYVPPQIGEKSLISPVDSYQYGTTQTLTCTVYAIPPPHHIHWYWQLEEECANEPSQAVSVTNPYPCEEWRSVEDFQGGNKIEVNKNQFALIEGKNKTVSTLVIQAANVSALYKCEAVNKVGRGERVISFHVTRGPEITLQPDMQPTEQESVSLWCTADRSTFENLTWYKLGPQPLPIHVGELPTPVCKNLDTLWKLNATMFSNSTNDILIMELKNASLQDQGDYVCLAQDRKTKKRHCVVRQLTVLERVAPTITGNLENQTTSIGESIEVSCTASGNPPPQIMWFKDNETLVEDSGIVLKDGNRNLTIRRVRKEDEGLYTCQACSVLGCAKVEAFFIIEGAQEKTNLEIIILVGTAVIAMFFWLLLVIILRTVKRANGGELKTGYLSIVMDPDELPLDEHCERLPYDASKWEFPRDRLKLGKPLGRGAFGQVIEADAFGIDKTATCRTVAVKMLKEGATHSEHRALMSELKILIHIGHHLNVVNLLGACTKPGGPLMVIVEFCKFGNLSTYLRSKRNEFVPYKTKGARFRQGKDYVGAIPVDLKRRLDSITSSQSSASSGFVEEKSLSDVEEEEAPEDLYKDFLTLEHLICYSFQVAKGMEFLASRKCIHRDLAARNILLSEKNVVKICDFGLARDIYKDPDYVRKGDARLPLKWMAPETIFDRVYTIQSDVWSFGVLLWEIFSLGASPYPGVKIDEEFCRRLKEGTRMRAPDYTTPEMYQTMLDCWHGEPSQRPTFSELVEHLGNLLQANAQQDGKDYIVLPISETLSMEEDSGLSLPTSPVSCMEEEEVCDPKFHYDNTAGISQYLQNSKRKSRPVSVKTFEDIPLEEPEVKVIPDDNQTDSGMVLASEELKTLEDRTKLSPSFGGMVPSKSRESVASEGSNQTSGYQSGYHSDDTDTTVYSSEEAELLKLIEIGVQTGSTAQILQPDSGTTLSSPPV

## O=C(Nc1cccc(C(F)(F)F)c1)Nc1ccccc1Cl
[1]
  IC50: > 100 µM
[2]
  IC50: 4.4 µM

## c1ccc2c3c([nH]c2c1)-c1n[nH]cc1CCC3
[1]
  IC50: 0.86 µM
[2]
  IC50: 0.62 µM

## Cc1oc(-c2ccccc2)nc1COc1cccc(CO)c1
[1]
  IC50: > 100 µM
[3]
  inhibition: 8%
[2]
  IC50: 50 µM
  Ki: 25 µM
